Measurements published in patent US20030166161A1, “Gene that imparts selective proliferative activity” (priority 1997, published 2003).

How the values were obtained:
BaF/ΔGCRTmR clones = test: XTT proliferation assay of BaF/ΔGCRTmR clones; type: cell-based; conditions: 10^−9 M G-CSF or 10^−7 M Tm; FIG. 17E-G
Protocol: (§1) Cultures containing IL-3 or G-CSF were split every three to four days, while Tm-containing cultures were diluted every four days. Cell proliferation assay was performed periodically in 96-well microtiter plates by the 2,3-bis (2-methoxy-4-nitro-5-sulfophenyl)-5-[(phenylamino)-carbonyl]-2H-tetrazolium hydroxide (XTT) method using Cell Proliferation Kit II (Boehringer Mannheim, Mannheim, Germany) [Scudiero D A, et al., Cancer Res., (1988) 48: 4827-4833]. For hormone dose-response analysis, transduced Ba/F3 cells were stimulated by various concentrations of Tm or E2, and XTT assay was performed on day zero and day four. The final concentration of ethanol used to dilute Tm and E2 was 0.1% in all the culture conditions.

[1] = system: parental and transduced Ba/F3 cultures; test: Toxicity of E2 or Tm in Ba/F3 cultures with IL-3; conditions: concentrations up to 10^−6 M
Protocol: as §1

Parental Ba/F3 cells = test: XTT proliferation assay of parental Ba/F3 cells; type: cell-based; conditions: IL-3, 10^−9 M G-CSF, 10^−7 M Tm, 10^−7 M E2; FIG. 17A
Protocol: as §1

BaF/GCRTmR clones = test: XTT proliferation assay of BaF/GCRTmR clones; type: cell-based; conditions: for growth of GCRTmR-transduced Ba/F3 cells with stimulator: IL-3, 10^−9 M G-CSF, 10^−7 M Tm or 10^−7 M E2, FIG. 17B-D
Protocol: as §1

[2] = system: Ba/F3 cells into which pCMX-GRΔ(5-195, 725-756)/ER was introduced; test: XTT proliferation assay, Ba/F3 cells with pCMX-GCRΔ(5-195, 725-756)/ER; type: cell-based; conditions: estrogen or G-CSF stimulation
[3] = system: Ba/F3 cells into which pCMX-GCRΔ(5-195)/ER was introduced; test: XTT proliferation assay, Ba/F3 cells with pCMX-GCRΔ(5-195)/ER; type: cell-based; conditions: G-CSF or estradiol stimulation, FIG. 5
Source text: The Ba/F3 cells into which “pCMX-GCRΔ(5-195)/ER” was introduced were then examined.

[4] = system: Ba/F3 cells into which pCMX-GCRER was introduced; test: XTT proliferation assay, Ba/F3 cells with pCMX-GCRER; type: cell-based; conditions: for proliferation of IL-3-independent cells by stimulation: stimulation with G-CSF or estradiol, FIG. 3
Source text: The Ba/F3 cells into which “pCMX-GCRER” was introduced were examined.

GCRER-expressing Ba/F3 = conditions: Ito K, et al., Blood (1997), cited from earlier work
Ba/F3 cells = test: MTS cell proliferation assay of Ba/F3 cells transduced with Mpl chimeric genes; type: cell-based
Protocol: BOSC23 cells were transfected with MSCV/ΔGCR-ER orMSCV/Mpl-ER or MSCV/ΔGCR-Mpl-ER or MSCV/ΔGCR-Mpl-TmR-IRES-EGFP using Transfection MBS Mammalian Transfection Kit (Stratagene) and the viral supernatants were harvested on day two post-transfection. Fibronectin-assisted transduction of IL3-dependentBa/F3 cells was carried out on 6-well plates precoated with CH296 fibronectin fragment (Retronectin; Takara Shuzo) according to a standard procedure. After retroviral infection, ΔGCR-Mpl-TmR-IRES-EGFP transduced Ba/F3 cells (BaF/ΔGCR-Mpl-TmR) were selected with EPICS Elite ESP Cell Sorter. GFP-positive cells were […] and were cloned by limiting dilution with 10^−7 M 4-hydroxytamoxifen (Tm).
Cell proliferation assay was periodically performed using CellTier 96 Aqueous One Solution Cell Proliferation Assay {3-(4,5-dimethylthiazol-2-yl)-5-(3-carboxymethoxyphenyl)-2-(4-sulfophenyl)-2H-tetrazolium (MTS); Promega, Madison, Wis.} essentially according to the manufacturer's instruction. In brief, 20 μl per well of MTS-labeling mixture was added. After the incubation at 37° C. for 2 hours, the spectrophotometeical absorbance was measured at the wave length of 490 nm and 650 nm.

[5] = XTT day four vs day zero, FIG. 19

Molecule | growth of BaF/ΔGCRTmR clones with stimulator (BaF/ΔGCRTmR clones) | toxic effects [1] | support of untransduced Ba/F3 by stimulator (Parental Ba/F3 cells) | optimal concentration of Tm to stimulate BaF/GCRTmR (BaF/GCRTmR clones) | response to 10 M Tm, clone 3 (BaF/GCRTmR clones; BaF/GCRTmR clone 3, 10 M Tm as printed) | growth of GCRTmR-transduced Ba/F3 cells with stimulator (BaF/GCRTmR clones) | Tm concentration at which all three clones grew well (BaF/GCRTmR clones; [5]) | time until cells stopped growing and died upon removal of Tm (BaF/GCRTmR clones; long-term culture without IL-3, FIG. 18) | time Tm alone could support the cells in long-term culture (BaF/GCRTmR clones; without IL-3, FIG. 18) | cell proliferation by stimulation [2] | cell proliferation by stimulation [3] | estradiol concentrations at which cell proliferation was observed ([4]; estradiol varied between 10^−14 and 10^−7 M, FIG. 4) | proliferation of IL-3-independent cells by stimulation [4] | E2 concentration inducing proliferation of GCRER-expressing Ba/F3 (GCRER-expressing Ba/F3) | E2 dose optimal to support Ba/F3 cells expressing GCRER or ΔGCRER (GCRER-expressing Ba/F3; previous study) | response to 10^−6 M E2, clone 3 (BaF/GCRTmR clones; BaF/GCRTmR clone 3, 10^−6 M E2) | response to 10^−6 M E2, the other clones (BaF/GCRTmR clones; BaF/GCRTmR clones 1 and 2, 10^−6 M E2) | E2 concentration up to which no growth was observed (BaF/GCRTmR clones; [5]) | growth response to TPO in the absence of IL-3 (Ba/F3 cells; 100 ng/ml rhTPO) | growth response to estrogen (E2) in the absence of IL-3 (Ba/F3 cells; 10^−7M β-estradiol)
4-hydroxytamoxifen [Tm] | proliferated | neither reagent showed toxic effects | did not support | 10^−7-10^−6 M | partially responded | grew continuously | 10^−7-10^−6 M | ≤ 24 h | at least 36 days | – | – | – | – | – | – | – | – | – | – | –
C[C@]12CC[C@@H]3c4ccc(O)cc4CC[C@H]3[C@@H]1CC[C@@H]2O [estradiol, β-estradiol] | – | – | did not support | – | – | had no effect | – | – | – | cell proliferation was caused | caused cell proliferation | 10^−9 to 10^−7 M | proliferated | ≥ 10^−10 M | 10^−7 M | limited response | inert | up to 10^−7 M | – | –
G-CSF: cytokine (hematopoietic factor); human G-CSF provided by Chugai Pharmaceuticals (protein) TPLGPASSLPQSFLLKCLEQVRKIQGDGAALQEKLCATYKLCHPEELVLLGHSLGIPWAPLSSCPSQALQLAGCLSQLHSGLFLYQGLLQALEGISPELGPTLDTLQLDVADFATTIWQQMEELGMAPALQPTQGAMPAFASAFQRRAGGVLVASHLQSFLEVSYRVLRHLAQP | did not respond | – | did not support | – | – | grew continuously | – | – | – | no response | blocked | – | proliferated | – | – | – | – | – | – | –
Mpl-ER: fusion protein between Mpl and ER (protein) QDVSLLASDSEPLKCFSRTFEDLTCFWDEEEAAPSGTYQLLYAYPREKPRACPLSSQSMPHFGTRYVCQFPDQEEVRLFFPLHLWVKNVFLNQTRTQRVLFVDSVGLPAPPSIIKAMGGSQPGELQISWEEPAPEISDFLRYELRYGPRDPKNSTGPTVIQLIATETCCPALQRPHSASALDQSPCAQPTMPWQDGPKQTSPSREASALTAEGGSCLISGLQPGNSYWLQLRSEPDGISLGGSWGSWSLPVTVDLPGDAVALGLQCFTLDLKNVTCQWQQQDHASSQGFFYHSRARCCPRDRYPIWENCEEEEKTNPGLQTPQFSRCHFKSRNDSIIHILVEVTTAPGTVHSYLGSPFWIHQAVRLPTPNLHWREISSGHLELEWQHPSSWAAQETCYQLRYTGEGHQDWKVLEPPLGARGGTLELRPRSRYRLQLRARLNGPTYQGPWSSWSDPTRVETATETAWISLVTALHLVLGLSAVLGLLLLRWQFPAHYRRLRHALWPSLPDLHRVLGQYLRDTAALSPPKATVSDTCEEVEPSLLEILPKSSERTPLPLCSSQAQMDYRRLQPSCLGTMPLSVCPPMAESGSCCTTHIANHSYLPLSYWQQPGTSGDMRAANLWPSPLVIKHTKKNSPALSLTADQMVSALLDAEPPLIYSEYDPSRPFSEASMMGLLTNLADRELVHMINWAKRVPGFGDLNLHDQVHLLECAWLEILMIGLVWRSMEHPGKLLFAPNLLLDRNQGKCVEGMVEIFDMLLATSSRFRMMNLQGEEFVCLKSIILLNSGVYTFLSSTLKSLEEKDHIHRVLDKINDTLIHLMAKAGLTLQQQHRRLAQLLLILSHIRHMSNKGMEHLYNMKCKNVVPLYDLLLEMLDAHRLHAPASRMGVPPEEPSQSQLTTTSSTSAHSLQTYYIPPEAEGFPNTI | – | – | – | – | – | – | – | – | – | – | – | – | – | – | – | – | – | – | acquired the ability to proliferate | acquired the ability to proliferate
